Data taken from the NIST ThermoML archive (doi:10.1016/j.jct.2017.06.020).
Numbers after ± are expanded uncertainties.

Columns and labels:
[1] = refractive index (Na D-line) (dimensionless); xn = mol fraction of the nth substance listed; conditions: 298.15 K, 101.3 kPa, Liquid, Standard Abbe refractometry
[2] = relative permittivity at various frequencies (dimensionless); xn = mol fraction of the nth substance listed; conditions: 298.15 K, 101.3 kPa, Liquid, Frequency=0.01 MHz, Coaxial cylinder capacitor
[3] = refractive index (Na D-line) (dimensionless); conditions: 298.15 K; 101.3 kPa; Liquid; Standard Abbe refractometry
[4] = 298.15 K; 101.3 kPa; Liquid; Vibrating tube method
[5] = relative permittivity at various frequencies (dimensionless); conditions: 298.15 K; 101.3 kPa; Liquid; Frequency=0.01 MHz; Coaxial cylinder capacitor

CC(=O)c1ccccc1 [acetophenone] + CCCCCO
Conditions | refractive index, [1] | relative permittivity, [2]
x1 = 0.1 | 1.4212 ± 0.0011 | 14.86 ± 0.04
x1 = 0.2 | 1.4346 ± 0.0011 | 14.71 ± 0.04
x1 = 0.3 | 1.4468 ± 0.0011 | 14.66 ± 0.04
x1 = 0.4 | 1.4598 ± 0.0011 | 14.75 ± 0.04
x1 = 0.501 | 1.4726 ± 0.0011 | 14.94 ± 0.04
x1 = 0.6 | 1.4859 ± 0.0011 | 15.25 ± 0.04
x1 = 0.7 | 1.4968 ± 0.0011 | 15.65 ± 0.04
x1 = 0.8 | 1.5092 ± 0.0011 | 16.19 ± 0.04
x1 = 0.9 | 1.5213 ± 0.0011 | 16.83 ± 0.04
x1 = 1 | 1.5318 ± 0.0011 | 17.51 ± 0.04

CCC(C)=O [butanone]
Conditions | mass density [kg/m3] | refractive index | relative permittivity
[3] | – | 1.376 ± 0.001 | –
[4] | 799.75 ± 3.2 | – | –
[5] | – | – | 18.38 ± 0.04

CCC(C)=O [butanone] + CC(C)CCO
x1 = 1
Conditions | refractive index | relative permittivity
[1] | 1.376 ± 0.001 | –
[2] | – | 18.38 ± 0.04

CCC(C)=O [butanone] + CCCCCO
Conditions | refractive index, [1] | relative permittivity, [2]
x1 = 0.1 | 1.4053 ± 0.0011 | 14.81 ± 0.04
x1 = 0.2 | 1.4023 ± 0.0011 | 14.68 ± 0.04
x1 = 0.3 | 1.3988 ± 0.0011 | 14.63 ± 0.04
x1 = 0.4 | 1.3959 ± 0.0011 | 14.73 ± 0.04
x1 = 0.5 | 1.393 ± 0.0011 | 14.96 ± 0.04
x1 = 0.599 | 1.3898 ± 0.0011 | 15.35 ± 0.04
x1 = 0.7 | 1.3859 ± 0.0011 | 15.9 ± 0.04
x1 = 0.8 | 1.3826 ± 0.001 | 16.56 ± 0.04
x1 = 0.9 | 1.3796 ± 0.001 | 17.44 ± 0.04
x1 = 1 | 1.376 ± 0.001 | 18.38 ± 0.04

C1CCCCC1 [cyclohexane]
Conditions | mass density [kg/m3] | refractive index | relative permittivity
[3] | – | 1.4234 ± 0.001 | –
[4] | 773.58 ± 3.1 | – | –
[5] | – | – | 2.02 ± 0.04

C[S+](C)[O-] [dimethyl sulfoxide]
Conditions | mass density [kg/m3] | refractive index | relative permittivity
[3] | – | 1.4767 ± 0.0011 | –
[4] | 1096.07 ± 4.4 | – | –
[5] | – | – | 46.71 ± 0.04

C[S+](C)[O-] [dimethyl sulfoxide] + CC(C)CCO
x1 = 1
Conditions | refractive index | relative permittivity
[1] | 1.4768 ± 0.0011 | –
[2] | – | 46.71 ± 0.04

C[S+](C)[O-] [dimethyl sulfoxide] + CCCCCO
x1 = 1
Conditions | refractive index | relative permittivity
[1] | 1.4767 ± 0.0011 | –
[2] | – | 46.71 ± 0.04

CCCCCO [pentan-1-ol]
Conditions | mass density [kg/m3] | refractive index | relative permittivity
[3] | – | 1.4082 ± 0.0011 | –
[4] | 811.1 ± 3.2 | – | –
[5] | – | – | 15.12 ± 0.04

CCCCCO [pentan-1-ol] + CC(=O)c1ccccc1
x2 = 0
Conditions | refractive index | relative permittivity
[1] | 1.4082 ± 0.0011 | –
[2] | – | 15.12 ± 0.04

CCCCCO [pentan-1-ol] + CC(C)=O
Conditions | refractive index, [1] | relative permittivity, [2]
x2 = 0 | 1.4082 ± 0.0011 | 15.12 ± 0.04
x2 = 0.1 | 1.4049 ± 0.0011 | 14.94 ± 0.04
x2 = 0.2 | 1.4015 ± 0.0011 | 14.91 ± 0.04
x2 = 0.301 | 1.397 ± 0.0011 | 15.01 ± 0.04
x2 = 0.399 | 1.3926 ± 0.0011 | 15.28 ± 0.04
x2 = 0.5 | 1.3882 ± 0.0011 | 15.73 ± 0.04
x2 = 0.601 | 1.3828 ± 0.0011 | 16.35 ± 0.04
x2 = 0.701 | 1.3771 ± 0.0011 | 17.21 ± 0.04
x2 = 0.8 | 1.3706 ± 0.0011 | 18.21 ± 0.05
x2 = 0.9 | 1.3639 ± 0.0011 | 19.36 ± 0.05

CCCCCO [pentan-1-ol] + CCC(C)=O
x2 = 0
Conditions | refractive index | relative permittivity
[1] | 1.4082 ± 0.0011 | –
[2] | – | 15.12 ± 0.04

CCCCCO [pentan-1-ol] + C[S+](C)[O-]
Conditions | refractive index, [1] | relative permittivity, [2]
x2 = 0 | 1.4082 ± 0.0011 | 15.12 ± 0.04
x2 = 0.099 | 1.4109 ± 0.0011 | 16.27 ± 0.05
x2 = 0.201 | 1.4164 ± 0.0011 | 18.04 ± 0.06
x2 = 0.3 | 1.4217 ± 0.0011 | 20.24 ± 0.06
x2 = 0.4 | 1.427 ± 0.0011 | 22.93 ± 0.07
x2 = 0.5 | 1.4339 ± 0.0011 | 25.94 ± 0.08
x2 = 0.6 | 1.44 ± 0.0011 | 29.38 ± 0.08
x2 = 0.7 | 1.4488 ± 0.0011 | 33.14 ± 0.09
x2 = 0.8 | 1.4573 ± 0.0011 | 37.33 ± 0.1
x2 = 0.9 | 1.4675 ± 0.0011 | 41.95 ± 0.1
